Source: PubChem BioAssay (NCI)
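Assay format: 96-well plates, 48-hour exposure. TGI: concentration producing complete growth inhibition.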

Key:
Assay in all cases: NCI-60 cell line screen, 48 h
HOP-18 NSCLC = tested on: HOP-18 NSCLC
DLD-1 colon = tested on: DLD-1 colon
HCT-116 colon = tested on: HCT-116 colon
UACC-257 melanoma = tested on: UACC-257 melanoma
SF-268 CNS = tested on: SF-268 CNS
SNB-19 CNS = tested on: SNB-19 CNS
EKVX NSCLC = tested on: EKVX NSCLC
OVCAR-8 ovarian = tested on: OVCAR-8 ovarian
SK-OV-3 ovarian = tested on: SK-OV-3 ovarian
LOX IMVI melanoma = tested on: LOX IMVI melanoma
OVCAR-3 ovarian = tested on: OVCAR-3 ovarian
K-562 leukemia = tested on: K-562 leukemia
IGROV1 ovarian = tested on: IGROV1 ovarian
MALME-3M melanoma = tested on: MALME-3M melanoma
SN12C renal = tested on: SN12C renal
HT29 colon = tested on: HT29 colon
NCI-H460 lung = tested on: NCI-H460 lung
786-0 renal = tested on: 786-0 renal
SNB-78 CNS = tested on: SNB-78 CNS
A498 renal = tested on: A498 renal
TK-10 renal = tested on: TK-10 renal
OVCAR-5 ovarian = tested on: OVCAR-5 ovarian
SW-620 colon = tested on: SW-620 colon
UACC-62 melanoma = tested on: UACC-62 melanoma
NCI-H226 lung = tested on: NCI-H226 lung
UO-31 renal = tested on: UO-31 renal
RXF 393 renal = tested on: RXF 393 renal
XF 498 CNS = tested on: XF 498 CNS
SF-539 CNS = tested on: SF-539 CNS
HCC-2998 colon = tested on: HCC-2998 colon
HOP-62 NSCLC = tested on: HOP-62 NSCLC
CCRF-CEM leukemia = tested on: CCRF-CEM leukemia
SR leukemia = tested on: SR leukemia
SF-295 CNS = tested on: SF-295 CNS
KM20L2 colon = tested on: KM20L2 colon
DMS 114 small cell lung = tested on: DMS 114 small cell lung
U251 CNS = tested on: U251 CNS
SNB-75 CNS = tested on: SNB-75 CNS
ACHN renal = tested on: ACHN renal
NCI-H23 lung = tested on: NCI-H23 lung
OVCAR-4 ovarian = tested on: OVCAR-4 ovarian
SK-MEL-28 melanoma = tested on: SK-MEL-28 melanoma
LXFL 529 NSCLC = tested on: LXFL 529 NSCLC
A549 NSCLC = tested on: A549 NSCLC
KM12 colon = tested on: KM12 colon
HL-60(TB) leukemia = tested on: HL-60(TB) leukemia
MOLT-4 leukemia = tested on: MOLT-4 leukemia
RPMI-8226 leukemia = tested on: RPMI-8226 leukemia
M14 melanoma = tested on: M14 melanoma
NCI/ADR-RES ovarian = tested on: NCI/ADR-RES ovarian
SK-MEL-2 melanoma = tested on: SK-MEL-2 melanoma
HOP-92 NSCLC = tested on: HOP-92 NSCLC
COLO 205 colon = tested on: COLO 205 colon
HCT-15 colon = tested on: HCT-15 colon
MDA-MB-231 breast = tested on: MDA-MB-231 breast
HS 578T breast = tested on: HS 578T breast
M19-MEL melanoma = tested on: M19-MEL melanoma
MDA-N = tested on: MDA-N
SK-MEL-5 melanoma = tested on: SK-MEL-5 melanoma
MDA-MB-435 = tested on: MDA-MB-435
PC-3 prostate = tested on: PC-3 prostate
CAKI-1 renal = tested on: CAKI-1 renal
DU-145 prostate = tested on: DU-145 prostate
NCI-H522 lung = tested on: NCI-H522 lung
MCF7 breast = tested on: MCF7 breast

In the case of `Cc1[nH]c2ccccc2c1C1Cc2ccccc2N1C(=O)C#Cc1ccc([N+](=O)[O-])cc1` (stereo not drawn), the TGI (HOP-18 NSCLC) is reported as over 100 µM, the TGI (DLD-1 colon) is reported as over 100 µM and the TGI (HCT-116 colon) is reported as over 100 µM. For the same compound, the TGI (UACC-257 melanoma) was over 100 µM, the TGI (SF-268 CNS) was over 100 µM and the TGI (SNB-19 CNS) was over 100 µM. For the same compound, the TGI (EKVX NSCLC) was over 100 µM, the TGI (OVCAR-8 ovarian) was over 100 µM and the TGI (SK-OV-3 ovarian) was over 100 µM. It also gave a TGI (LOX IMVI melanoma) of over 100 µM, a TGI (OVCAR-3 ovarian) of over 100 µM and a TGI (K-562 leukemia) of over 100 µM. It also gave a TGI (IGROV1 ovarian) of over 100 µM, a TGI (MALME-3M melanoma) of over 100 µM and a TGI (SN12C renal) of over 100 µM. It also gave a TGI (HT29 colon) of over 100 µM, a TGI (NCI-H460 lung) of over 100 µM and a TGI (786-0 renal) of over 100 µM. The TGI (SNB-78 CNS) was over 100 µM, the TGI (A498 renal) was over 100 µM and the TGI (TK-10 renal) was over 100 µM. It also gave a TGI (OVCAR-5 ovarian) of over 100 µM, a TGI (SW-620 colon) of over 100 µM and a TGI (UACC-62 melanoma) of over 100 µM. The TGI (NCI-H226 lung) was over 100 µM, the TGI (UO-31 renal) was over 100 µM and the TGI (RXF 393 renal) was over 100 µM. The TGI (XF 498 CNS) was over 100 µM, the TGI (SF-539 CNS) was over 100 µM and the TGI (HCC-2998 colon) was over 100 µM. It also gave a TGI (HOP-62 NSCLC) of over 100 µM, a TGI (CCRF-CEM leukemia) of over 100 µM and a TGI (SR leukemia) of over 100 µM. For the same compound, the TGI (SF-295 CNS) was over 100 µM, the TGI (KM20L2 colon) was over 100 µM and the TGI (DMS 114 small cell lung) was over 100 µM. For the same compound, the TGI (U251 CNS) was over 100 µM, the TGI (SNB-75 CNS) was over 100 µM and the TGI (ACHN renal) was over 100 µM. For the same compound, the TGI (NCI-H23 lung) was over 100 µM, the TGI (OVCAR-4 ovarian) was over 100 µM and the TGI (SK-MEL-28 melanoma) was over 100 µM. For the same compound, the TGI (LXFL 529 NSCLC) was over 100 µM, the TGI (A549 NSCLC) was over 100 µM and the TGI (KM12 colon) was over 100 µM. For the same compound, the TGI (HL-60(TB) leukemia) was over 100 µM, the TGI (MOLT-4 leukemia) was over 100 µM and the TGI (RPMI-8226 leukemia) was over 100 µM. The TGI (M14 melanoma) was over 100 µM.
With `CC(O)CCCOC(c1ccccc1)(c1ccccc1)c1ccccc1` (stereo not drawn) the TGI (DLD-1 colon) was 31.5 µM, the TGI (NCI/ADR-RES ovarian) was 24 µM and the TGI (HCT-116 colon) was 26.9 µM. The TGI (UACC-257 melanoma) was 30.4 µM, the TGI (SF-268 CNS) was 29.8 µM and the TGI (SNB-19 CNS) was 29.6 µM. It also gave a TGI (EKVX NSCLC) of 28.1 µM, a TGI (OVCAR-8 ovarian) of 28.2 µM and a TGI (SK-OV-3 ovarian) of 30.8 µM. The TGI (LOX IMVI melanoma) was 30.4 µM, the TGI (OVCAR-3 ovarian) was 27.3 µM and the TGI (K-562 leukemia) was over 100 µM. The TGI (IGROV1 ovarian) was 29.9 µM, the TGI (MALME-3M melanoma) was 27.8 µM and the TGI (SN12C renal) was 30.6 µM. The TGI (SK-MEL-2 melanoma) was 29.5 µM, the TGI (HT29 colon) was 26.2 µM and the TGI (NCI-H460 lung) was 30.6 µM. For the same compound, the TGI (786-0 renal) was 30.3 µM, the TGI (SNB-78 CNS) was 29.3 µM and the TGI (HOP-92 NSCLC) was 25.5 µM. It also gave a TGI (COLO 205 colon) of 39.3 µM, a TGI (HCT-15 colon) of 29.8 µM and a TGI (A498 renal) of 34.7 µM. For the same compound, the TGI (TK-10 renal) was 30.6 µM, the TGI (OVCAR-5 ovarian) was 30.5 µM and the TGI (SW-620 colon) was 32.3 µM. For the same compound, the TGI (MDA-MB-231 breast) was 33.3 µM, the TGI (UACC-62 melanoma) was 27 µM and the TGI (HS 578T breast) was 39.6 µM. The TGI (NCI-H226 lung) was 30.2 µM, the TGI (M19-MEL melanoma) was 31 µM and the TGI (MDA-N) was 31.7 µM. For the same compound, the TGI (UO-31 renal) was 26.7 µM, the TGI (RXF 393 renal) was 29.2 µM and the TGI (SK-MEL-5 melanoma) was 16.6 µM. The TGI (XF 498 CNS) was 28.2 µM, the TGI (SF-539 CNS) was 31.2 µM and the TGI (HCC-2998 colon) was 29.1 µM. The TGI (HOP-62 NSCLC) was 31.4 µM, the TGI (CCRF-CEM leukemia) was over 67.2 µM and the TGI (MDA-MB-435) was 30.4 µM. It also gave a TGI (SR leukemia) of over 57.4 µM, a TGI (SF-295 CNS) of 27.4 µM and a TGI (KM20L2 colon) of 22.3 µM. For the same compound, the TGI (DMS 114 small cell lung) was 26.4 µM, the TGI (PC-3 prostate) was 23.7 µM and the TGI (U251 CNS) was 30.3 µM. The TGI (CAKI-1 renal) was 29.9 µM, the TGI (SNB-75 CNS) was 25.8 µM and the TGI (ACHN renal) was 27.8 µM. The TGI (NCI-H23 lung) was 27.6 µM, the TGI (OVCAR-4 ovarian) was 28.1 µM and the TGI (SK-MEL-28 melanoma) was 30.1 µM. The TGI (LXFL 529 NSCLC) was 27.9 µM, the TGI (A549 NSCLC) was 27.3 µM and the TGI (KM12 colon) was 27.8 µM. For the same compound, the TGI (HL-60(TB) leukemia) was over 55.1 µM, the TGI (DU-145 prostate) was 30.4 µM and the TGI (MOLT-4 leukemia) was over 50.9 µM. For the same compound, the TGI (NCI-H522 lung) was 26.8 µM, the TGI (RPMI-8226 leukemia) was over 55.6 µM and the TGI (M14 melanoma) was 29.1 µM. The TGI (MCF7 breast) was 28.3 µM.
